The record followed here is patent US20150104392A1, “COMPOSITIONS, BIOMARKERS AND THEIR USE IN THE TREATMENT OF CANCER” (Aptose Biosciences Inc., priority 2013, published 2015).

One may read the IC50 as the concentration at which inhibition is half-maximal. A low value points to inhibition by little substance.

One data set deals with THP1 cells. As to the kind of experiment: BAX/BCL2 expression, quantitative RT-PCR. It is filed as cell-based, human. The following applies: 0.5 μM, 48 hours. How it is done: THP1 cells were treated with DMSO (vehicle control) or 0.5 μM LOR-253 for 48 hours. Total RNA was extracted using the TRIzol Plus RNA Purification kit (Ambion, Life Technologies), according to the manufacturer's instructions. First strand cDNA was synthesized from 1-2 ug total RNA using random hexamer primers (Invitrogen) and the SuperScript II Reverse Transcriptase kit (Invitrogen). Quantitative RT-PCR was performed in the ABI Prism 7000 Sequence Detection System using cDNAs and human TaqMan Gene Expression Assay primer/probe sets for BCL2-associated X protein (BAX), B-cell CLL/Lymphoma 2 (BCL2) and the ABI TaqMan Universal PCR master mix protocol. Gene expression was normalized with β-actin gene expression in the same sample, and fold changes in BAX or BCL2 were expressed relative to the corresponding expression level in the DMSO treated samples using the comparative CT method.

Data set [1] can be described thus: GLP blood compatibility studies.
Another data set deals with KLF4 protein. The data set is described as follows: Pharmacodynamic response, KLF4 protein level in tumors. It counts as in vivo. The following applies: mice; 1, 5 and 15 mg/kg for 5 consecutive days; 16 hours after last dose. How it is done: To study the pharmacodynamic (PD) responses, mice were treated for 5 consecutive days with 1, 5, and 15 mg/kg LOR-253. Tumors were measured 16 hours after the last dose, and the KLF-4 protein level was measured.

Another data set concerns cancer cell lines. The data set is described as follows: XTT antiproliferative assay, panel of cancer cell lines (FIG. 3). It counts as cell-based. How it is done:
FIG. 3 is a graphical representation of the effect of LOR-253 on proliferation of a number of cancer cell lines in vitro. Cells of various cancer cell lines were incubated with LOR-253 as described in the Examples, and the […] concentrations of various cell lines for 50% of maximal inhibition of cell proliferation (GI50) by LOR-253 were determined and shown in the figure.
Antiproliferative activity of LOR-253 was determined by XTT assay as follows. Adherent cells (2×10^3/well) in 100 μL of growth medium were seeded in 96-well cell culture plates and incubated overnight at 37° C. The medium was removed and replaced with a total volume of 100 μL growth medium containing LOR-253 (or 0.1% DMSO vehicle control), as described in the respective experiments. […] After incubation of the cells at 37° C. for 5 days, cell viability was quantitated with the use of sodium 3′-[1-(phenylamino-carbonyl)-3,4-tetrazolium}-bis(4-methoxy-6-nitro)benzene sulfonic acid hydrate (XTT) colorimetric assay (Roche). […] The plates were further incubated at 37° C. for 4 h, and the absorbance of each well was measured at 490 nm with a multiwell spectrophotometer (Bio-Tek Instruments Inc.). The data were adjusted relative to the blank and expressed as a percentage of cell growth compared with the vehicle control. […]

The next data set has as its system MV-4-11. The data set is described as follows: XTT antiproliferative assay. It is filed as cell-based. The following applies: Homo sapiens, MV4-11, 120 h; MV-4-11, Acute myeloid leukemia; 5 days incubation. How it is done:
(§1) Antiproliferative activity of LOR-253 was determined by XTT assay as follows. Adherent cells (2×10^3/well) in 100 μL of growth medium were seeded in 96-well cell culture plates and incubated overnight at 37° C. The medium was removed and replaced with a total volume of 100 μL growth medium containing LOR-253 (or 0.1% DMSO vehicle control), as described in the respective experiments. Suspension cells were plated (4-6×10^3/well) in 50 μL growth medium, and 50 μL growth medium containing LOR-253 (or 0.1% DMSO vehicle control) was added to each well. After incubation of the cells at 37° C. for 5 days, cell viability was quantitated with the use of sodium 3′-[1-(phenylamino-carbonyl)-3,4-tetrazolium}-bis(4-methoxy-6-nitro)benzene sulfonic acid hydrate (XTT) colorimetric assay (Roche). XTT labeling reagent (1 mg/mL) was mixed with electron-coupling reagent, following the manufacturer's instructions, and 50 μL of the mixture was added directly to the cells. The plates were further incubated at 37° C. for 4 h, and the absorbance of each well was measured at 490 nm with a multiwell spectrophotometer (Bio-Tek Instruments Inc.). The data were adjusted relative to the blank and expressed as a percentage of cell growth compared with the vehicle control. (Ref. Huesca et al., Mol Cancer Ther. 2009. 8:2586-96; Lorus publication on LOR-133)
In general terms: Formazan colour is commonly taken as a measure of viable cells.

The test system of another data set is Raji. As to the kind of experiment: XTT antiproliferative assay. It counts as cell-based. The following applies: Homo sapiens, 120 h, Non-Hodgkin's Lymphoma, 5 days incubation. The method, then: as §1
The next data set relates to HEL92.1.7. The data set is described as follows: XTT antiproliferative assay. It counts as cell-based. The following applies: Homo sapiens, HEL 92.1.7, 120 h; HEL92.1.7, Acute myeloid leukemia; 5 days incubation. The method, then:
as §1

The next data set concerns KG-1. The data set is described as follows: XTT antiproliferative assay. It is filed as cell-based. The following applies: Homo sapiens, 120 h; KG-1, Acute myeloid leukemia; 5 days incubation. The method, then:
as §1

A further data set relates to K562. The data set is described as follows: XTT antiproliferative assay. It is filed as cell-based. To be noted: Homo sapiens, 120 h; K562, Chronic Myelogenous Leukemia; 5 days incubation. The method, then:
as §1

A further data set deals with THP-1. The data set is described as follows: XTT antiproliferative assay. It is filed as cell-based. The following applies: Homo sapiens, 120 h; THP-1, Acute myeloid leukemia; 5 days incubation. The method, then:
as §1

Another data set concerns MM.1R. As to the kind of experiment: XTT antiproliferative assay. It is filed as cell-based. The following applies: 120 h, Multiple myeloma, 5 days incubation. How it is done: as §1
A further data set has as its system OCI-AML2. As to the kind of experiment: XTT antiproliferative assay. It counts as cell-based. To be noted: Homo sapiens, 120 h; OCI-AML2, Acute myeloid leukemia; 5 days incubation. The method, then: as §1
The test system of another data set is HuNS1. As to the kind of experiment: XTT antiproliferative assay. It is filed as cell-based. The following applies: 120 h; HuNS1, Multiple myeloma; 5 days incubation. How it is done: as §1
In another data set the test system is SKM-1. As to the kind of experiment: XTT antiproliferative assay. It counts as cell-based. The following applies: Homo sapiens, 120 h; SKM-1, Acute myeloid leukemia; 5 days incubation. The method, then: as §1
For the next data set, the system named is MOLM13 (CD47+). As to the kind of experiment: XTT antiproliferative assay. The following applies: Homo sapiens, MOLM-13, 120 h, Acute myeloid leukemia, 5 days incubation. It is filed as cell-based. How it is done: as §1
The subject of the next data set is Toledo. As to the kind of experiment: XTT antiproliferative assay. It is filed as cell-based. To be noted: Homo sapiens, 120 h, Non-Hodgkin's Lymphoma, 5 days incubation. The method, then: as §1
In data set [2] the test system is HL-60. The data set is described as follows: Caspase 3 activity, EnzChek Caspase-3 Assay Kit. It is filed as cell-based. The following applies: 0.5 μM, 48 hours. How it is done:
(§2) THP1 and HL-60 cells were treated with DMSO (vehicle control) or 0.5 μM LOR-253 for 48 hours. Cell lysates were collected using a 1% Triton-X100 lysis. Caspase 3 activity was measured using EnzChek Caspase-3 Assay Kit #1 (Life Technologies) with 5 μg of cell lysastes according to manufacturer's protocol.

Data set [3] deals with THP1. The data set is described as follows: Caspase 3 activity, EnzChek Caspase-3 Assay Kit. It counts as cell-based. To be noted: 0.5 μM, 48 hours. The method, then:
as §2

Data set [4] concerns HL-60. As to the kind of experiment: Cell cycle analysis, propidium iodide flow cytometry. It is filed as cell-based. The following applies: 0.5 μM, 16 hours. How it is done:
(§3) THP1 and HL-60 AML cell lines were treated with DMSO (vehicle control) or 0.5 μM LOR-253 for 16 hours. Cells were washed once in PBS+1% FCS and fixed using ice cold 70% ethanol overnight. Fixed cells were washed twice, resuspended in PI/RNaseA solution, containing 20 μg/mL propidium iodide and 250 μg/mL RNaseA, and stained for 30 minutes at 37° C. Stained cells were analyzed using a BD FACSCalibur flow cytometer.
For orientation: In flow cytometry, cells or beads pass a laser one at a time.

Data set [5] relates to THP1. The data set is described as above. It counts as cell-based. To be noted: 0.5 μM, 16 hours. How it is done:
as §3

Take `Cc1[nH]c2ccc(F)cc2c1-c1nc2c3cccnc3c3ncccc3c2[nH]1` [LOR-253]: the “BAX expression (fold change vs DMSO)” value with THP1 cells is listed as “Elevation of BAX”. Further, the “BCL2 expression (fold change vs DMSO)” value in the data set with THP1 cells is “repression of BCL2”. Besides, the “blood compatibility of IV formulation” value in [1] is on record as “confirmed the suitability of IV formulation”. For the same molecule, in the data set with KLF4 protein, the “average KLF4 protein levels in tumors” value is “increased in a dose-dependent manner”. For the same molecule, the “sensitivity of cell lines to LOR-253” value with cancer cell lines (cell lines of lung, bladder, colon, prostate cancer, melanoma and breast cancer) is on record as “less sensitive”; with cancer cell lines (leukemia/lymphoma incl. AML cell lines (HL-60, MV 411, THP-1, HEL92.1.7, CCRF-CEM, MOLT-4, Jurkat, K-562, Ramos, Raji)), “most sensitive”. Also, the IC50 in the data set on MV-4-11 is 0.069 µM; in the data set on Raji it was 0.011 µM; with HEL92.1.7 it was 0.305 µM; in the data set with KG-1 it was 0.033 µM; in the data set on K562 it was 0.25 µM; in the data set with THP-1, 0.077 µM. For the same molecule, the IC50 came out at 0.15 µM in the data set with MM.1R; 0.076 µM in the data set on OCI-AML2; 0.072 µM with HuNS1; 0.145 µM in the data set on SKM-1; 0.13 µM in the data set with MOLM13 (CD47+); 0.077 µM in the data set on Toledo. In addition, the “Caspase 3 activity” value with HL-60 [2] and in the data set with THP1 [3] was “elevated Caspase 3 activity” each time. Moreover, the cell cycle effect entry with HL-60 [4] and in the data set with THP1 [5] was “G1/S cell cycle arrest” each time.
